Square brackets hold non-standard residues; d marks the D form. Ends that are not written are not given here. * marks the point of attachment. Sox = hydroxyquinoline on cysteine, CN(C)S(=O)(=O)c1ccc(O)c2nc(C*)ccc12; pT = C[C@@H](OP(=O)(O)O)[C@H](N)C(=O)O
Test: Eu(III) titration, time-resolved luminescence, determination of Eu(III) dissociation constants
Assay type: binding
Settings: 5 micromolar peptide, 30° C., 50 mM HEPES pH 7.5, 100 mM NaCl; averages of three separate experiments
Protocol: The luminescence experiments were conducted as follows. Time-resolved emission measurements were made with a CLARIOstar® spectrofluorimeter. The spectra were recorded between 410 and 700 nm, and all measurements were made using the following settings: excitation wavelength 360 nm; delay time 0.4 ms; stepwidth 1.0 nm; emission bandwidth 8 nm; gain: 3000; focal height […]; 20 flashes per well. All of the spectra were corrected for background luminescence by subtracting a blank scan of the solvent solution.
Determination of Eu(III) dissociation constants (KD). Eu(III) titrations were performed at 30° C. in a buffer containing 50 mM HEPES buffer, pH 7.5, 100 mM NaCl, and 5 micromolar of the of the phosphopeptide Sox-P (5 micromolar) or the corresponding unphosphorylated biosensor Sox-OH (5 micromolar) in a total volume of 200 microliters. Aliquots of EuCl3 stock solutions were added (for the final EuCl3 concentration in the well to be in the range of approximately 2.5-6000 micromolar) and the data was recorded in the fluorometer. Data were fit with the program GraFit 7. The reported values are averages of three separate experiments.

| Kd | Substance |
| --- | --- |
| 1570 µM | LVEPLTPC(Sox)GEA [Sox-OH, unphosphorylated biosensor peptide with Sox hydroxyquinoline attached to the S of the cysteine] |
| 18.4 µM | LVEPLT*PC(Sox)GEA (LVEPL[pT]PC(Sox)GEA) [Sox-P, phosphopeptide with Sox hydroxyquinoline attached to the S of the cysteine] |
